Test: mn = molality of the nth substance listed, in mol/kg
Conditions: 101 kPa, Liquid

O=[N+]([O-])[O-].[K+] [potassium nitrate] + O
Conditions | mass density [kg/m3] | speed of sound [m/s] | viscosity [mPa·s]
293.15 K, m1 = 0.2 | 1010.62 | 1490.7 | 0.98
293.15 K, m1 = 0.3 | 1016.69 | 1493.5 | 0.977
293.15 K, m1 = 0.4 | 1022.68 | 1497.4 | 0.973
293.15 K, m1 = 0.5 | 1028.6 | 1501 | 0.97
293.15 K, m1 = 0.6 | 1034.61 | 1504.4 | 0.967
293.15 K, m1 = 0.7 | 1040.37 | 1507.6 | 0.963
298.15 K, m1 = 0.2 | 1009.41 | 1504 | 0.871
298.15 K, m1 = 0.3 | 1015.47 | 1507 | 0.869
298.15 K, m1 = 0.4 | 1021.25 | 1510.1 | 0.867
298.15 K, m1 = 0.5 | 1027.13 | 1513.4 | 0.862
298.15 K, m1 = 0.6 | 1032.84 | 1517 | 0.862
298.15 K, m1 = 0.7 | 1038.56 | 1520 | 0.859
303.15 K, m1 = 0.2 | 1007.8 | 1515.6 | 0.778
303.15 K, m1 = 0.3 | 1013.82 | 1518.7 | 0.776
303.15 K, m1 = 0.4 | 1019.62 | 1522 | 0.775
303.15 K, m1 = 0.5 | 1025.4 | 1524.7 | 0.774
303.15 K, m1 = 0.6 | 1031.2 | 1528.4 | 0.773
303.15 K, m1 = 0.7 | 1036.79 | 1530.9 | 0.772
308.15 K, m1 = 0.2 | 1006.09 | 1526 | 0.672
308.15 K, m1 = 0.3 | 1011.97 | 1528.8 | 0.67
308.15 K, m1 = 0.4 | 1017.79 | 1531.4 | 0.669
308.15 K, m1 = 0.5 | 1023.58 | 1534.3 | 0.678
308.15 K, m1 = 0.6 | 1029.21 | 1536.8 | 0.666
308.15 K, m1 = 0.7 | 1034.87 | 1539.4 | 0.665
313.15 K, m1 = 0.2 | 1004.28 | 1534.6 | 0.595
313.15 K, m1 = 0.3 | 1009.98 | 1537.5 | 0.593
313.15 K, m1 = 0.4 | 1015.89 | 1539.7 | 0.585
313.15 K, m1 = 0.5 | 1021.56 | 1542.5 | 0.577
313.15 K, m1 = 0.6 | 1027.23 | 1544.8 | 0.569
313.15 K, m1 = 0.7 | 1032.76 | 1547.7 | 0.563

[Br-].[K+] [potassium bromide] + O
Conditions | mass density [kg/m3] | speed of sound [m/s] | viscosity [mPa·s]
293.15 K, m1 = 0.2 | 1015.19 | 1487 | 0.985
293.15 K, m1 = 0.3 | 1023.34 | 1488.9 | 0.975
293.15 K, m1 = 0.4 | 1031.61 | 1490.9 | 0.97
293.15 K, m1 = 0.5 | 1039.7 | 1492.8 | 0.97
293.15 K, m1 = 0.6 | 1047.69 | 1493.4 | 0.95
293.15 K, m1 = 0.7 | 1055.7 | 1497.1 | 0.936
298.15 K, m1 = 0.2 | 1013.8 | 1500.6 | 0.873
298.15 K, m1 = 0.3 | 1022.08 | 1503.2 | 0.863
298.15 K, m1 = 0.4 | 1030.17 | 1504 | 0.86
298.15 K, m1 = 0.5 | 1038.34 | 1506.5 | 0.857
298.15 K, m1 = 0.6 | 1046.11 | 1506 | 0.846
298.15 K, m1 = 0.7 | 1054.22 | 1509.1 | 0.832
303.15 K, m1 = 0.2 | 1012.3 | 1512.5 | 0.782
303.15 K, m1 = 0.3 | 1020.51 | 1514.2 | 0.772
303.15 K, m1 = 0.4 | 1028.56 | 1516 | 0.769
303.15 K, m1 = 0.5 | 1036.79 | 1517.2 | 0.765
303.15 K, m1 = 0.6 | 1044.6 | 1517.9 | 0.76
303.15 K, m1 = 0.7 | 1052.52 | 1520.4 | 0.74
308.15 K, m1 = 0.2 | 1010.63 | 1523.4 | 0.698
308.15 K, m1 = 0.3 | 1018.9 | 1524.6 | 0.688
308.15 K, m1 = 0.4 | 1026.73 | 1526.4 | 0.682
308.15 K, m1 = 0.5 | 1035 | 1527.7 | 0.678
308.15 K, m1 = 0.6 | 1042.99 | 1527.8 | 0.674
308.15 K, m1 = 0.7 | 1050.61 | 1529.6 | 0.664
313.15 K, m1 = 0.2 | 1008.74 | 1532.3 | 0.622
313.15 K, m1 = 0.3 | 1016.99 | 1532.8 | 0.612
313.15 K, m1 = 0.4 | 1024.78 | 1534.7 | 0.608
313.15 K, m1 = 0.5 | 1032.88 | 1535.5 | 0.605
313.15 K, m1 = 0.6 | 1041.01 | 1535.9 | 0.602
313.15 K, m1 = 0.7 | 1048.62 | 1538.1 | 0.595
